Reference: US11207379B2, “Peptides with anti-cancer activity” (IDP DISCOVERY PHARMA, S.L., priority 2016, dated 2021)

Tests used:
[1] = biological target: MM.1S, B Lymphoblast (multiple myeloma); experiment: Viability assay (MTT, Alamar Blue, hexosaminidase), 72 h; format: cell-based; settings: MM.1S cells, read-out: EC50
Outline: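 MM.1S cells (RPMI-1640, 10% FBS, 2 mM glutamine, 37 °C) were seeded at 10000 cells/well and dosed after 24 h, starting at 100 μM with 1:1 serial dilutions, in triplicate, for 72 h. Viability was read sequentially by MTT (570 nm), Alamar Blue (535/590) and hexosaminidase (pH 5.0). Values were normalized to control (100%), and EC50 came from a variable-slope sigmoidal fit.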

[2] = test system: MM1S cells; experiment: Subcutaneous xenograft model, tumor volume and survival; format: in vivo, CB17-SCID immunosuppressed mice; settings: 5 mg/kg i.p. each 12 h; for Tumor Volume: in mm³ (unit assumed)
Description: CB17-SCID immunosuppressed mice (female) of 6-7 weeks old housed and handled in a pathogen-free zone. They were purchased from Janvier Labs. All experiments were carried out within the facilities of the University of Salamanca.
Groups Studied: • Control: Medium (PBS) i.p. each 12 hours from Monday to Friday. • S03 i.p. each 12 hours from Monday to Friday (in PBS until end point) • S04 15 mg/kg i.p. each 12 hours from Monday to Friday (in PBS until end point) • S09 5 mg/kg i.p. each 12 hours from Monday to Friday (in PBS until end point)
Subcutaneous xenoaraft model: The mice were shaved on the right flank and anesthetized by inhalation to decrease their mobility, were inoculated subcutaneously with 3×10^6 MM1S cells in 50 μl of RPMI-1640 medium and 50 μl of Corning® Matrigel® Basement Membrane Matrix. When the tumors became palpable (at 30 days), the mice were randomized into the different groups (5 mice in the control group and 4 in the remaining groups) according to the tumor volume. This was estimated by measurements with a caliper of the two tumor diameters and using the following formula of a spheroid: V=(a·b^2·π)/6, where a and b correspond to the longest and shortest diameter, respectively. Tumor volume was monitored three times per week.
Survival evaluation: Mice were sacrificed when their tumor diameter reached 2 cm. The time to reach the endpoint criterion was estimated from the day of treatment start. The statistical differences were evaluated using Kaplan-Meier curves with the log rank test. Statistical analyzes were performed using the SPSS-17.0 program.

[3] = test system: JB healthy cells (BJ, fibroblast, normal skin); experiment: Viability assay (MTT, Alamar Blue, hexosaminidase), 72 h; format: cell-based
Description: BJ, fibroblast (normal skin), ATCC® CRL-2522™
Cell lines A549, MCF-7 and RAMOS were cultured in incubator under CO2 (6%) at 37° C. in DMEM high glucose (Dulbecco's Modified Eagle Solution, Gibco-BRL 31966-21) medium with 10% fetal bovine serum inactivated (FBS) (Gibco-BRL 10106-169). Cell lines HL-60 and MM.1S were cultured in incubator at 37° C. in RPMI-1640 (Sigma R8758) medium with 10% of fetal bovine serum inactivated (FBS) and 2 mM glutamine (Sigma G7513). Cell lines BJ were cultured in incubator under CO2 (6%) at 37° C. in Eagle's Minimum Essential Medium (Sigma, M-2279) with 10% fetal bovine serum inactivated (FBS) (Gibco-BRL 10106-169).
During the amplification step and the assays adherent cells were rinsed with DPBS (Dulbecco's Phosphate Buffered Saline, Sigma D1283) three times and afterward treated for 5 minutes with trypsin ([…]) (Gibco-BRL, 15400054) in solution of DPBS at 37° C., and, once detached, transferred in the culturing medium. […] Cells were counted in a Neubauer chamber after labelling with Tripan-Blue. […]
Cells were incubated during 72 h in incubator under CO2 atmosphere at 37° C. Cell viability was measured by means of MTT (3-(4,5-dimethylthiazol-2-yl)-2.5-diphenyltetrazolium bromide) assay, Alamar Blue® (Biosource DAL1100) and Hexosaminidase activity test, consecutively, following manufacturer instructions. […]

With RQRRNXLKRAFAXLRDQ-OH [IDP-S03] the EC50 [1] was roughly 14 µM, the “differences in survival with respect to the control” value [2] was 9.5 and the “tumor reduction with respect to the control” value ([2]; at the end-time (when the control is sacrificed)) was 50%. For the same substance, the “% Tumor Volume” value ([2]; day of treatment 1 (= 100)) was 100%, the “Tumor Volume” value ([2]; day of treatment 1) was 59.0 and the “% Tumor Volume” value ([2]; day of treatment 5, relative to day 1) was 193.2%. The “Tumor Volume” value ([2]; day of treatment 5) was 114.1, the “% Tumor Volume” value ([2]; day of treatment 10, relative to day 1) was 443.9% and the “Tumor Volume” value ([2]; day of treatment 10) was 262.1. For the same substance, the “% Tumor Volume” value ([2]; day of treatment 15, relative to day 1) was 661.6%, the “Tumor Volume” value ([2]; day of treatment 15) was 390.7 and the “% Tumor Volume” value ([2]; day of treatment 19, relative to day 1) was 969.5%. The “Tumor Volume” value ([2]; day of treatment 19) was 572.6, the “% Tumor Volume” value ([2]; day of treatment 26, relative to day 1) was 2481.2% and the “Tumor Volume” value ([2]; day of treatment 26) was 1465.2. For the same substance, the “Mean survival, Average” value ([2]; from treatment start until tumor diameter 2 cm) was 40.5 days and the EC50 [3] was greater than 100 µM.
